According to patent publication US10759822B2 (priority 2016, dated 2020):

Assays:
[1] = system: 030418-induced respiratory depression rats; conditions: rat, in vivo
[2] = mouse, in vivo
[3] = mouse, in vivo; remark: listed apart in the source
[4] = system: 030418-induced acute death in mice; design: species or system KM mice; conditions: mouse, in vivo
[5] = system: field EPSP in the rat dentate gyrus; conditions: in vivo, ip; cited from earlier work
[6] = system: hyperactivity induced by d-amphetamine; conditions: in vivo, ip, 2 mg/kg; cited from earlier work

Compound | antagonism toward the decreased respiratory rate and ventilation caused by 030418 [1] | effect on respiratory rate and ventilation compared with Compound a [1] | (AUC0-t)prodrug group/(AUC0-t)prototype drug group [2] | (AUC0-t)prodrug/(AUC0-t)prototype drug [3] | survival rate of mice [4] | molar dose for the same anti-lethal effect, relative to Compound a ([4]; sc, 15 mg/kg) | increase in the amplitude of the field EPSP [5] [%] | inhibition of hyperactivity [6] [%] | Death rate [4] [%]
C/C(=C(\CCOC(=O)CCCC(=O)OC1CCC(N(C)C(=O)c2ccc3nonc3c2)CC1)SSCCC(C)C)N(C)C=O (stereo not drawn) [Compound 15, Pentanedioic acid anti-4-[(benzo[c][1,2,5]oxadiazole-5-carbonyl)-methyl-amino]-cyclohexyl ester 3-isopentyldisulfanyl-4-(formyl-methyl-amino)-pent-3-enyl ester] | dose-dependent antagonism | same effect as Compound a (10 mg/kg) | 0.41 | 2.23 | increase the survival rate of mice in a dose-dependent manner | one-eighth | – | – | –
CN(C(=O)c1ccc2nonc2c1)C1CCC(O)CC1 (stereo not drawn) [Compound a, N-(anti-4-hydroxycyclohexyl)-N-methylbenzo[c][1,2,5]oxadiazol-5-yl-carboxamide, reference compound] | – | – | – | – | – | – | 21 | 100 | 20
